The record followed here is patent US20250346782A1 (W. L. Gore & Associates, Inc., priority 2022, published 2025).

Data set [1] is described as follows: Nitric oxide (NO) release, Berkeley nitric oxide test strips (Evaluation Method Ai). In kind it is physicochemical. The conditions noted are these: 37° C.; for onset of release of NO from the coating / time at which steady state of NO release / nitrite anion concentration is reached: coating of compound alone on ePTFE film, PBS 10 mM with 100 μM EDTA; for delayed release of NO from the coating / time at which steady state concentration of nitrite anion is reached: coating with VDF-HFP fluoropolymer on ePTFE film, PBS. Here is the method:
The ability of a chemical entity as described herein, or surface having a coating comprising a chemical entity as described herein, to release nitric oxide (NO) is assessed using commercially available Berkely nitric oxide test strips (“Berkeley Life Nitric Oxide Saliva Test Strips”). Instructions for use for such test strips are provided with the packaging of the Berkely nitric oxide test strips, and additionally are described in WO2013/023217A1 and WO2014/039794A2 (incorporated herein by reference).The test strips provide a semi-quantitative measure of NO-derived analytes (primarily aqueous nitrite anion) rather than NO itself, because as is known to the art (Ignarro et al., 1993), aqueous NO has a very short half-life of only seconds, whereas aqueous nitrite anion (which derives from aqueous NO) has a half-life of several hours. As such, the nitrite anion is an appropriate surrogate to measure aqueous NO concentrations. The test strips comprise a nitrite detection pad containing dry chemical reagents responsive to different nitric oxide analytes, thereby, indicating concentrations of nitric oxide. The test strips are capable of detecting a concentration range of the nitric oxide analyte from 0 to 400 μmol/L nitrite with visibly distinct intensities of colorimetric sub-ranges expressed as a red colour (i.e., approximately 700 nm wavelength) of increasing intensity, qualitatively corresponding to micromolarity, specifically, but not limited to: 0 μM, 1 μM to 25 μM, 25 μM to 100 μM, 100 μM to 200 μM, 200 μM to 350 μM, and greater than 400 μM nitrite.
The surface having a coating to be assessed is submerged in a test solution of PBS, 10.0 mM, pH 7.4, with 100 μM EDTA. NO concentration is assessed at given timepoints by dipping the test strip in the solution. After 5 seconds, the test strip is removed, the strip is folded over and the sample pad is gently pressed against the test pad and held for 10 seconds. The ends are separated and compared to the Berkeley Test Nitric Oxide Scale, where the visibly distinct colorimetric sub-ranges comprise 6 subjective levels of intensity of red wavelengths (i.e., approximately 700 nm wavelength), corresponding to 0 μM, 25 μM, 100 μM, 200 μM, 350 μM, and 400 μM of nitric oxide-derived analytes, depending upon the qualitative intensity of red subjectively observed by a user. […] As shown in the Examples below, because each strip is assigned to one of the 6 subjective intensity levels (the sixth being no response), the resulting NO release plot has discrete jumps rather than a continuous curve, although in practice continuous release is expected to be occurring.
In separate experiments, chloroform solutions of S-nitrosothiol-containing compound 16 (Example 19) and compound 17 (Example 20) were deposited dropwise onto ePTFE films secured on embroidery hoops, allowing the solvents to evaporate as the solutions were deposited. Once the solvents had evaporated and the resulting coatings were dry, 10 mL of a PBS buffer solution comprising 10 mM phosphate buffered saline with 100 μM EDTA, was poured over the individual coated films in round, polyethylene containers with screw-cap lids and placed in a 37° C. water bath. The PBS buffer solutions were tested periodically for NO release according to Evaluation Method Ai. The NO release profile for the film coated with compound 16 is shown in FIG. 4, and for the film coated with compound 17, in FIG. 5.
In separate experiments, acetone solutions of 50 mg of the S-nitrosothiol-containing compound 16 (Example 19), compound 18 (Example 22), and copolymer 20 (Example 23) were added to individual mixtures of 200 mg of VDF-HFP fluoropolymer in 10 mL of acetone. The green mixtures were then poured onto 3-inch disks of ePTFE films secured on embroidery hoops, and the solvents evaporated under a stream of argon. […]

Test in data set [2]: as above
The conditions noted are these: PBS, 37° C. It counts as physicochemical.

The mark [3] stands for this setting: Example 30, FIG. 12: silicone coating on ePTFE film.
Where [4] appears, read: coating with VDF-HFP fluoropolymer on Pebax nylon film.
Where [5] appears, read: coating with VDF-HFP fluoropolymer on ePE film.
[6] abbreviates: coating with VDF-HFP fluoropolymer on stainless steel foil.

The structures appear in SMILES notation.

As to `CC(C)(SN=O)C(NC(=O)CCCCC(=O)NC(C(=O)NCc1ccccc1)C(C)(C)SN=O)C(=O)NCc1ccccc1` (stereo not shown) [Compound 16], in data set [1], the “onset of release of NO from the coating” value was “immediate release”, the “time at which steady state of NO release / nitrite anion concentration is reached” value came to 5 days, the “delayed release of NO from the coating” value was 2 days and the “time at which steady state concentration of nitrite anion is reached” value was found to be 8 days.

For the compound `CC(C)(SN=O)C(NC(=O)CCCCC(=O)NC(C(=O)Nc1ccccc1)C(C)(C)SN=O)C(=O)Nc1ccccc1` (stereo not shown) [Compound 17, S,S′-((adipoylbis(azanediyl))bis(2-methyl-4-oxo-4-(phenylamino)butane-3,2-diyl)) dinitrothioite], in data set [1], the “onset of release of NO from the coating” value is reported as “immediate release” and the “time at which steady state of NO release / nitrite anion concentration is reached” value is recorded as 7 days.

For `CC(C)(SN=O)C(NC(=O)c1cc(C(=O)NC(C(=O)NCc2ccccc2)C(C)(C)SN=O)cc(C(=O)NC(C(=O)NCc2ccccc2)C(C)(C)SN=O)c1)C(=O)NCc1ccccc1` (stereo not shown) [Compound 18, S,S′,S″-(((benzene-1,3,5-tricarbonyl)tris(azanediyl))tris(4-(benzylamino)-2-methyl-4-oxobutane-3,2-diyl)) trinitrothioite], the “onset of release of NO from the coating” value in data set [2] (setting [3]) was “immediate first release”. Besides, the “time at which steady state concentration of nitrite anion is reached” value came to 7 days in data set [2] (setting [3]); 13 days in data set [2] (setting [4]); 15 days in data set [2] (setting [5]); 14 days in data set [2] (setting [6]); 12 days in data set [1]. Further, the “delayed release of NO from the coating” value in data set [2] (setting [4]) worked out at 4 days; in data set [2] (setting [5]), 2 days; in data set [2] (setting [6]), 9 days; in data set [1], 2 days.
